In PubChem BioAssay (NCI):
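Following 48 hours of exposure in 96-well plates, responses at five concentrations were used to interpolate endpoints linearly. The concentration for 50% growth inhibition is given as GI50. TGI: total growth inhibition.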

Columns and labels:
Test in all cases: inhibition of tumour cell growth, NCI panel, 48 h
MALME-3M melanoma = system: MALME-3M melanoma
OVCAR-4 ovarian = system: OVCAR-4 ovarian
SF-539 CNS = system: SF-539 CNS
OVCAR-3 ovarian = system: OVCAR-3 ovarian
SF-268 CNS = system: SF-268 CNS
NCI-H460 lung = system: NCI-H460 lung
UACC-62 melanoma = system: UACC-62 melanoma
OVCAR-5 ovarian = system: OVCAR-5 ovarian
SW-620 colon = system: SW-620 colon
CCRF-CEM leukemia = system: CCRF-CEM leukemia
HS 578T breast = system: HS 578T breast
A549 NSCLC = system: A549 NSCLC
UACC-257 melanoma = system: UACC-257 melanoma
HCT-116 colon = system: HCT-116 colon
SK-MEL-28 melanoma = system: SK-MEL-28 melanoma
LOX IMVI melanoma = system: LOX IMVI melanoma
EKVX NSCLC = system: EKVX NSCLC
HOP-92 NSCLC = system: HOP-92 NSCLC
SR leukemia = system: SR leukemia
SF-295 CNS = system: SF-295 CNS
DU-145 prostate = system: DU-145 prostate
HCT-15 colon = system: HCT-15 colon
MCF7 breast = system: MCF7 breast
NCI/ADR-RES ovarian = system: NCI/ADR-RES ovarian
U251 CNS = system: U251 CNS
RXF 393 renal = system: RXF 393 renal
SK-OV-3 ovarian = system: SK-OV-3 ovarian
MOLT-4 leukemia = system: MOLT-4 leukemia
HL-60(TB) leukemia = system: HL-60(TB) leukemia
OVCAR-8 ovarian = system: OVCAR-8 ovarian
ACHN renal = system: ACHN renal
HCC-2998 colon = system: HCC-2998 colon
MDA-MB-435 = system: MDA-MB-435
UO-31 renal = system: UO-31 renal
MDA-MB-231 breast = system: MDA-MB-231 breast
KM12 colon = system: KM12 colon
HOP-62 NSCLC = system: HOP-62 NSCLC
SK-MEL-5 melanoma = system: SK-MEL-5 melanoma
NCI-H23 lung = system: NCI-H23 lung
RPMI-8226 leukemia = system: RPMI-8226 leukemia
SNB-75 CNS = system: SNB-75 CNS
CAKI-1 renal = system: CAKI-1 renal
NCI-H226 lung = system: NCI-H226 lung
COLO 205 colon = system: COLO 205 colon
PC-3 prostate = system: PC-3 prostate
K-562 leukemia = system: K-562 leukemia
IGROV1 ovarian = system: IGROV1 ovarian
786-0 renal = system: 786-0 renal
M14 melanoma = system: M14 melanoma
A498 renal = system: A498 renal
SNB-19 CNS = system: SNB-19 CNS

## COc1cc(/C=C/[N+](=O)[O-])c([N+](=O)[O-])cc1OC
MALME-3M melanoma
  GI50: 1710 nM
  TGI: 3380 nM
OVCAR-4 ovarian
  GI50: 1570 nM
  TGI: 2930 nM
SF-539 CNS
  GI50: 3270 nM
  TGI: 84700 nM
OVCAR-3 ovarian
  GI50: 1300 nM
  TGI: 2570 nM
SF-268 CNS
  GI50: 2710 nM
  TGI: 11300 nM
NCI-H460 lung
  GI50: 2330 nM
  TGI: 5670 nM
UACC-62 melanoma
  GI50: 2340 nM
  TGI: 7140 nM
OVCAR-5 ovarian
  GI50: 1980 nM
  TGI: 3980 nM
SW-620 colon
  GI50: 785 nM
  TGI: 2260 nM
CCRF-CEM leukemia
  GI50: 2130 nM
  TGI: 6070 nM
HS 578T breast
  GI50: 1880 nM
  TGI: 7450 nM
A549 NSCLC
  GI50: 3380 nM
  TGI: 10300 nM
UACC-257 melanoma
  GI50: 2910 nM
  TGI: 11900 nM
HCT-116 colon
  GI50: 977 nM
  TGI: 2140 nM
SK-MEL-28 melanoma
  GI50: 2060 nM
  TGI: 4720 nM
LOX IMVI melanoma
  GI50: 1680 nM
  TGI: 3050 nM
EKVX NSCLC
  GI50: 8980 nM
  TGI: 22600 nM
HOP-92 NSCLC
  GI50: 2050 nM
  TGI: 4270 nM
SR leukemia
  GI50: 1600 nM
  TGI: 8240 nM
SF-295 CNS
  GI50: 6720 nM
  TGI: 22100 nM
DU-145 prostate
  GI50: 1580 nM
  TGI: 2930 nM
HCT-15 colon
  GI50: 1330 nM
  TGI: 4490 nM
MCF7 breast
  GI50: 1120 nM
  TGI: 2730 nM
NCI/ADR-RES ovarian
  GI50: 2850 nM
  TGI: 10100 nM
U251 CNS
  GI50: 1920 nM
  TGI: 5350 nM
RXF 393 renal
  GI50: 1380 nM
  TGI: 2670 nM
SK-OV-3 ovarian
  GI50: 12800 nM
  TGI: 25400 nM
MOLT-4 leukemia
  GI50: 2210 nM
  TGI: 9110 nM
HL-60(TB) leukemia
  GI50: 1320 nM
  TGI: 5710 nM
OVCAR-8 ovarian
  GI50: 2500 nM
  TGI: 9460 nM
ACHN renal
  GI50: 1560 nM
  TGI: 2900 nM
HCC-2998 colon
  GI50: 1730 nM
  TGI: 3220 nM
MDA-MB-435
  GI50: 2170 nM
  TGI: 7510 nM
UO-31 renal
  GI50: 1360 nM
  TGI: 2810 nM
MDA-MB-231 breast
  GI50: 1700 nM
  TGI: 3460 nM
KM12 colon
  GI50: 1930 nM
  TGI: 3920 nM
HOP-62 NSCLC
  GI50: 2910 nM
  TGI: 8740 nM
SK-MEL-5 melanoma
  GI50: 3390 nM
  TGI: 12300 nM
NCI-H23 lung
  GI50: 2120 nM
  TGI: 4940 nM
RPMI-8226 leukemia
  GI50: 2530 nM
  TGI: 5740 nM
SNB-75 CNS
  GI50: 2250 nM
  TGI: 7560 nM
CAKI-1 renal
  GI50: 1700 nM
  TGI: 7170 nM
NCI-H226 lung
  GI50: 2630 nM
  TGI: 7680 nM
COLO 205 colon
  GI50: 1160 nM
  TGI: 2430 nM
PC-3 prostate
  GI50: 2300 nM
  TGI: 5700 nM
K-562 leukemia
  GI50: 1640 nM
  TGI: > 100000 nM
IGROV1 ovarian
  GI50: 2550 nM
  TGI: 11900 nM
786-0 renal
  GI50: 1610 nM
  TGI: 2950 nM
M14 melanoma
  GI50: 1600 nM
  TGI: 2980 nM
A498 renal
  GI50: 3030 nM
  TGI: 11900 nM
SNB-19 CNS
  GI50: 6000 nM
  TGI: 19800 nM
